These molecules were tested against recombinant human PAI-1 (Homo sapiens, UniProt P05121) (assay: Test Example 2: Human PAI-1 Inhibitory Activity (pH 7.4 HEPES buffer, 10 minutes incubation with two-chain tPA)). Settings: read-out: Inhibition Rate of PAI-1 Activity (%).
Format: biochemical
Parameters: purchased Molecular Innovations, Inc
Experimental: 0.1 M HEPES, 0.1 M NaCl. 1 mM EDTA. 0.1 % Polyethylene glycol 8,000 (Hampton Research Corporation),
2 mM Dimethyldecylphoshine oxide [Apo-10] (Fluka Corporation)

recombinant human PAI-1, sequence (P05121 24-402): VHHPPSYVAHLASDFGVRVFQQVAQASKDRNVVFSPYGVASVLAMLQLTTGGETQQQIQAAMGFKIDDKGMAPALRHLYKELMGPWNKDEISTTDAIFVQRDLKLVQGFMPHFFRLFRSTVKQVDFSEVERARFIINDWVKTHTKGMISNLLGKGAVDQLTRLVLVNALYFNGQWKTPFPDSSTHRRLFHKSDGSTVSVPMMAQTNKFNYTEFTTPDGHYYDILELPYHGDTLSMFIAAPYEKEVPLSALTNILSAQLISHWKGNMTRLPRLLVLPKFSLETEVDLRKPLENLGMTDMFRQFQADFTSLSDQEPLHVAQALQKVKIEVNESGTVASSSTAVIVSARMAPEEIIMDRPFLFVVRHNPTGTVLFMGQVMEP

inhibition at 0.1 µM [%]	inhibition at 0.3 µM [%]	inhibition at 1 µM [%]	inhibition at 3 µM [%]	inhibition at 10 µM [%]	inhibition at 25 µM [%]	Compound
5	55	> 99	98			O=C(O)C(=O)N(CCCCc1ccccc1)c1ccc(N2CCCCCC2)c(-c2ccc(OC(F)(F)F)cc2)c1 [Compound 674]
10	14	95	> 99			O=C(O)C(=O)N(CCCCc1ccccc1)c1ccc(N2CCSCC2)c(-c2ccc(OC(F)(F)F)cc2)c1 [Compound 675]
19	16	70	> 99			CCCCc1ccc(Oc2cc(-c3ccc(OC(F)(F)F)cc3)ccc2OCC(=O)O)cc1 [Compound 481]
13	27	97	93			CC(C)(C)c1ccc(Oc2cc(-c3cccc(OC(F)(F)F)c3)ccc2/C=C/C(=O)O)cc1 [Compound 503]
1	4	44	> 99			Cc1cc(C)cc(-c2ccc(CCC(=O)O)c(Oc3ccc(C(C)(C)C)cc3)c2)c1 [Compound 498]
9	20	97	> 99			O=C(O)C(=O)N(CCCCc1ccccc1)c1cc(-c2ccc(OC(F)(F)F)cc2)ccc1OC1CCCC1 [Compound 658]
19	33	97	94			CCCCCOc1ccc(-c2ccc(C(C)C)cc2)cc1N(CCCCc1ccccc1)C(=O)C(=O)O [Compound 678]
		0	24	78	> 99	CN(C(=O)c1ccc(N(Cc2ccc(C(C)(C)C)cc2)C(=O)C(=O)O)cc1)c1ccc(OC(F)(F)F)cc1 [Compound 618]
33	71	98	98			CCC(CC)Oc1ccc(-c2ccc(CCC(=O)O)c(Oc3ccc(C(C)(C)C)cc3)c2)cc1 [Compound 522]
0	6	11	69			CC(C)(C)c1ccc(Oc2cc(-c3cccc([N+](=O)[O-])c3)ccc2OCC(=O)O)cc1 [Compound 485]
0	12	67	98			CC(C)(C)c1cccc(Oc2ccc(-c3ccc(OC(F)(F)F)cc3)cc2/C=C/C(=O)O)c1 [Compound 437]
4	23	86	89			CCCCCOc1cc(-c2ccc(OC(F)(F)F)cc2)ccc1CN(C(=O)C(=O)O)c1ccc(C(C)(C)C)cc1 [Compound 648]
18	28	98	95			Cc1cc(C)cc(COc2ccc(-c3ccc(OC(F)(F)F)cc3)cc2N(CCCCc2ccccc2)C(=O)C(=O)O)c1 [Compound 662]
		41	93	98	> 99	CC(C)(C)c1ccc(COc2ccc(N3CCN(c4ccc(OC(F)(F)F)cc4)CC3)cc2CCC(=O)O)cc1 [Compound 419]
6	36	98	> 99			CC(C)(C)c1ccc(Oc2cc(-c3ccc(OC(F)(F)F)cc3)ccc2CCCC(=O)O)cc1 [Compound 527]
18	9	48	98			O=C(O)CCc1ccc(-c2ccc(OC(F)(F)F)cc2)cc1OCCCSc1ccccc1 [Compound 508]
0	0	11	96			Cc1ccc(-c2ccc(OCC(=O)O)c(Oc3ccc(C(C)(C)C)cc3)c2)cc1 [Compound 444]
0	3	14	81			CC(C)(C)c1ccc(COc2ccc(-c3ccc(OC(F)(F)F)cc3)cc2C(=O)O)cc1 [Compound 421]
3	38	94	96			CC(C)(C)c1ccc(Oc2cc(Nc3ccc(OC(F)(F)F)cc3)ccc2/C=C/C(=O)O)cc1 [Compound 531]
14	72	> 99	> 99			CC(C)c1ccc(-c2ccc(/C=C/C(=O)O)c(Sc3ccc(C(C)(C)C)cc3)c2)cc1 [Compound 520]
		11	59	95	95	CC(C)(C)c1ccc(CN(C(=O)CC(=O)O)c2ccc(-c3ccc(OC(F)(F)F)cc3)cc2)cc1 [Compound 608]
4	19	> 99	> 99			CCCCCOc1cc(N(CCCCc2ccccc2)C(=O)C(=O)O)ccc1-c1ccc(OC(F)(F)F)cc1 [Compound 654]
12	26	> 99	96			O=C(O)C(=O)N(CCCCc1ccccc1)c1cc(-c2ccc(OC(F)(F)F)cc2)ccc1OC1CCCCCC1 [Compound 659]
25	82	> 99	> 99			CCC(CC)Oc1ccc(-c2ccc(/C=C/C(=O)O)c(Oc3ccc(C(C)(C)C)cc3)c2)cc1 [Compound 521]
4	0	25	97			CC(C)(C)c1ccc(Oc2ccc(Nc3ccc(OC(F)(F)F)cc3)cc2CCC(=O)O)cc1 [Compound 432]
		7	25	84	> 99	CC(C)(C)c1ccc(N(Cc2ccc(-c3ccccc3)cc2)C(=O)C(=O)O)cc1 [Compound 612]
27	43	95	98			CCCCCOc1ccc(-c2ccc(OC(F)(F)F)cc2)cc1CN(CC(=O)O)c1ccc(C(C)(C)C)cc1 [Compound 647]
5	20	> 99	> 99			O=C(O)COc1ccc(-c2ccc(OC(F)(F)F)cc2)cc1Oc1ccc(OCc2ccccc2)cc1 [Compound 492]
9	20	93	99			CC(C)(C)c1ccc(Oc2cc(-c3cc(Cl)ccc3Cl)ccc2OCC(=O)O)cc1 [Compound 455]

Compound	inhibition at 0.1 µM [%]	inhibition at 0.3 µM [%]	inhibition at 1 µM [%]	inhibition at 3 µM [%]	inhibition at 10 µM [%]	inhibition at 25 µM [%]
CCCCCOc1ccc(-c2ccc(OC(F)(F)F)cc2)cc1N(CCCCC)C(=O)C(=O)O [Compound 366]	8	24	46	96		
CCCCC(Oc1ccc(-c2cccc(C)c2)cc1Oc1ccc(C(C)(C)C)cc1)C(=O)O (stereo not drawn) [Compound 321]	3	15	86	94		
CC(C)(C)c1ccc(Oc2cc(-c3ccc(OC(F)(F)F)cc3)ccc2C(=O)O)cc1 [Compound 434]	14	8	66	> 99		
CCCCC(Oc1ccc(-c2cccc(C(F)(F)F)c2)cc1Oc1ccc(C(C)(C)C)cc1)C(=O)O (stereo not drawn) [Compound 320]	1	9	70	98		
CCCCCOc1ccc(-c2ccc(F)cc2)cc1N(CCCCc1ccccc1)C(=O)C(=O)O [Compound 359]	1	7	26	96		
CCCCCCCCCOc1ccc(-c2ccc(OC(F)(F)F)cc2)cc1N(CCCCc1ccccc1)C(=O)C(=O)O [Compound 364]	41	94	97	92		
CCCCCOc1ccc(-c2ccccc2)cc1N(CCCCc1ccccc1)C(=O)C(=O)O [Compound 360]	5	8	35	92		
CC(C)(C)c1ccc(Oc2cc(-c3ccc(C(F)(F)F)cc3)ccc2OCC(=O)O)cc1 [Compound 330]	0	1	47	96		
CCCCCOc1ccc(-c2ccc(OC(F)(F)F)cc2)cc1N(CCCCc1ccc(F)cc1)C(=O)C(=O)O [Compound 382]	13	12	84	97		
CCCCCN(C(=O)C(=O)O)c1cc(-c2ccc(OC(F)(F)F)cc2)ccc1OCCCCc1ccccc1 [Compound 358]	0	10	55	98		
CCCCCCCCCOc1cc(-c2ccc(OC(F)(F)F)cc2)ccc1N(CCCCc1ccccc1)C(=O)C(=O)O [Compound 380]	76	96	97	> 99		
CCCCCOc1ccc(-c2ccc(OC(F)(F)F)cc2)cc1N(CCCCOc1ccccc1)C(=O)C(=O)O [Compound 374]	5	16	57	> 99		
CCCCCOc1cc(-c2cccc(C(F)(F)F)c2)ccc1N(CCCCc1ccccc1)C(=O)C(=O)O [Compound 377]	1	23	83	94		
